Legend:
[1] = target: T1, CDC25B (Homo sapiens, UniProt P30305); experiment: Kinetic studies of CDC25B phosphatase inhibition (OMFP substrate); type: biochemical; settings: putative from Lineweaver-Burk plots (ref 18), confirmed by the fluorescence studies of this work
T1 sequence (P30305 1-580): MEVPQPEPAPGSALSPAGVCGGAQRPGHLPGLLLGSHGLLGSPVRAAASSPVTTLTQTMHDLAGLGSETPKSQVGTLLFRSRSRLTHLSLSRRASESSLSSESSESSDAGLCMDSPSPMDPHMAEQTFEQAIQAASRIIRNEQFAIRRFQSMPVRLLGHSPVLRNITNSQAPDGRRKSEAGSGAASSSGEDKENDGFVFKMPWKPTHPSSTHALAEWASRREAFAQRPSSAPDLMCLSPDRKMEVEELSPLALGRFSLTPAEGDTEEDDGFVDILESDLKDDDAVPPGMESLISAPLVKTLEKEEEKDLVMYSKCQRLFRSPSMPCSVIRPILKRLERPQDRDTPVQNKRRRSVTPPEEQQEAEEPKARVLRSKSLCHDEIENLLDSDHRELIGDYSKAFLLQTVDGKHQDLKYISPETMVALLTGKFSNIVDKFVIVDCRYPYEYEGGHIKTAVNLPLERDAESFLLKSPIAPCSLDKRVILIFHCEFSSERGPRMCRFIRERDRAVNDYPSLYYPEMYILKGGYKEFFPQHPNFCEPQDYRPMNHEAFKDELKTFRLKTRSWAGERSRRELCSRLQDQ

[2] = test system: A2058 cells; experiment: Apoptosis by cytofluorimetry after PI incorporation (subdiploid DNA content); type: cell-based, human; settings: 5 or 10 µM, 24-72 h
Procedure: (§1) The human melanoma cell lines A375 and A2058, deriving from a primary tumour or lymph nodal metastasis, respectively, were kindly provided from CEINGE (Naples, Italy). Cells were grown in DMEM supplemented with 10% FBS, 2 mM L-glutamine, 100 IU/mL penicillin G and 100 µg/mL streptomycin in humidified incubator at 37 °C under 5% CO2 atmosphere. The cell line BJ-5ta, a human skin fibroblast immortalised with the human telomerase reverse transcriptase[30] was cultured in a 4:1 mixture of DMEM and Medium 199 supplemented with 4 mM L-glutamine, 4.5 g/L glucose, 1.5 g/L sodium bicarbonate, 10% FBS, 100 IU/mL penicillin G, […] streptomycin in humidified incubator at 37 °C under 5% CO2 atmosphere. All cells were split and seeded every 3 days and used during their exponential phase of growth. Cell treatments were usually carried out after 24 h from plating.
(§2) Cytofluorimetric analysis was used to determine the number of apoptotic nuclei essentially as previously described. Briefly, cells were seeded into six-well plates at 3 × 10^5 cells/well and after 24 h were treated with 4a or 0.5% (v/v) DMSO and incubated for different times. Then, cells were harvested with trypsin, and centrifuged, and the pellets were resuspended in 200 µL of a hypotonic lysis solution containing 50 µg/mL PI. After incubation at 4 °C for 30 min, cells were analysed with a FACScan flow cytometer (Becton Dickinson, Franklin Lakes, NJ, USA) to evaluate the presence of nuclei with DNA content lower than diploid.

[3] = test system: A375 cells; experiment: as above; type: cell-based, human; settings: 5 or 10 µM, 24-72 h
Procedure: as §1, §2

[4] = test system: BJ-5ta cells; experiment: as above; type: cell-based, human; settings: 10 µM, 24-, 48- or 72-h, nontumorigenic fibroblasts
Procedure: as §1, §2

[5] = test system: caspase-3 in A2058 cells; experiment: Caspase-3 fluorimetric activity assay in cell lysates; type: cell-based, human; settings: 10 µM, 24 h
Procedure: (§3) The caspase-3 and caspase-9 enzymatic activity was measured by using caspase-3 and -9 fluorimetric assay kits, respectively, according to the manufacturer’s protocol. Briefly, cells were seeded into 75 cm^2 plates (2 × 10^6 cells/plate) and after 24 h treated with 4a or 0.5% (v/v) DMSO for 24 h. At the end of incubation, cells were collected, washed with phosphate-buffered saline constituted by 10 mM Na2HPO4, 2 mM KH2PO4, pH 7.4, supplemented with 137 mM NaCl and 2.7 mM KCl (PBS), and finally lysed at 4 °C in the cell lysis buffer. Cell lysates were incubated with 50 µM DEVD-AFC or LEHD-AFC substrates at 37 °C for 2 h, to detect caspase-3 or caspase-9 activity, respectively, using a Cary Eclipse spectrofluorimeter. Excitation and emission wavelengths were set at 400 nm and 505 nm, respectively; both excitation and emission slits were set at 10 nm.

[6] = test system: caspase-3 in A375 cells; experiment: as above; type: cell-based, human; settings: 10 µM, 24 h
Procedure: as §3

Inhibition mechanism [1]: uncompetitive
Structure (SMILES): CCOC(=O)c1cccc(Nc2cc(OC)cc3ccccc23)c1 [4a]
apoptosis (cells with a hypodiploid DNA content) [2]: dose- and time-dependent increase | apoptosis (cells with a hypodiploid DNA content) [3]: dose- and time-dependent increase | apoptosis (cells with a subdiploid DNA content) [4]: does not exert any apoptotic effect | enzymatic activity of caspase-3 [5]: statistically significant increase | enzymatic activity of caspase-3 [6]: statistically significant increase

Source: PMC7580834, “Inhibition mechanism of naphthylphenylamine derivatives acting on the CDC25B dual phosphatase and analysis of the molecular processes involved in the high cytotoxicity exerted by one selected derivative in melanoma cells” (Journal of Enzyme Inhibition and Medicinal Chemistry, 2020)
